The record followed here is patent US20150031892A1, “SPHINGOLIPID METABOLITE MIMETICS” (Zhejiang University, priority 2012, published 2015).

A word on the IC50: it is the midpoint of a concentration-inhibition curve.

Type in all cases: cell-based
In test [1] the test system is A431. As to the kind of experiment: MTT cytotoxicity assay, A431 (squamous carcinoma). The note with it: Homo sapiens, A-431. As for the experimental part:
(§1) Cell survival after exposure to the sphingolipid metabolite mimetics was examined by MTT cytotoxicity assay. HepG2, A431, HeLa, MCF-7 and SA cells (7000 cells/well) were seeded in each well of a 96-well plate for 24 h. New medium was added to give final concentrations of 0 to 200 μM of the sphingolipid metabolite mimetics. Then, 50 μl of 1 mg/ml 3-(4,5-dimethylthiazol-2-yl)-2,5-diphenyltetrazolium bromide (MTT, Sigma-Aldrich Chemical) was added to each well for 4 h incubation at 37° C. The purple formazan formed was then solubilized by DMSO and absorbance at 570 nm was read by a microplate reader (Molecular Devices, Sunnyvale, Calif.).
(Tetrazolium dyes change colour on reduction, which living cells bring about.)

Test [2] has as its system HepG2. Briefly: MTT cytotoxicity assay, HepG2 (liver cancer). The note with it: Homo sapiens. The protocol:
as §1

Test [3] has as its system SA. As to the kind of experiment: MTT cytotoxicity assay, SA (pancreatic cancer as headed). The protocol:
as §1

Test [4] deals with SiHa. Briefly: MTT cytotoxicity assay, SiHa (ovarian cancer as headed). The note with it: Homo sapiens, Cervical Cancer SiHa.
Test [5] has as its system SW480. As to the kind of experiment: MTT cytotoxicity assay, SW480 (colon cancer). The note with it: Homo sapiens.

Each structure is given as a SMILES string.

On to `CCCCCCCCCCCCNC(=O)[C@@H](NC(=O)c1cc2ccccc2n1C)[C@@H](C)O` [NZJU50, N-((2S,3R)-3-hydroxy-1-oxo-1-(dodecylamino)butan-2-yl)-(N-methyl)indole-2-carboxamide], for which the IC50 in test [1] was 169 ± 14.7 µM; in test [2], over 200 µM; in test [3], 31.3 ± 1.14 µM; in test [4] it was over 200 µM; in test [5] it was 36 ± 2.87 µM.

In the case of `CCCCCCCCCCCCCCCCCCNC(=O)[C@@H](NC(=O)c1cc2ccccc2n1C)[C@@H](C)O` [NZJU52, N-((2S,3R)-3-hydroxy-1-oxo-1-(octadecylamino)butan-2-yl)-(N-methyl)indole-2-carboxamide], the IC50 in test [1] was 61 ± 1.82 µM; in test [2], over 200 µM; in test [3] it was 36.37 ± 0.19 µM; in test [4], 113 ± 12 µM; in test [5], 36 ± 3.23 µM.

Take `CCCCCCCCCCCCNC(=O)[C@@H](NC(=O)c1ccc2cc(O)ccc2c1)[C@@H](C)O` [NZJU53, N-((2S,3R)-3-hydroxy-1-oxo-1-(dodecylamino)butan-2-yl)-6-hydroxylnaphthoic-2-carboxamide]: the IC50 is 33 ± 3.55 µM in test [1]; 43 ± 4.04 µM in test [2]; 37.1 ± 1.17 µM in test [3]; 27.4 ± 2.07 µM in test [4]; 58.1 ± 4.37 µM in test [5].

For `CCCCCCCCCCCCCCNC(=O)[C@@H](NC(=O)c1ccc2cc(O)ccc2c1)[C@@H](C)O` [NZJU54, N-((2S,3R)-3-hydroxy-1-oxo-1-(tetradecylamino)butan-2-yl)-6-hydroxylnaphthoic-2-carboxamide], the IC50 in test [1] worked out at 24.4 ± 1.27 µM; in test [2], 23.6 ± 1.16 µM; in test [3] it was 24.2 ± 0.83 µM; in test [4], 30.1 ± 3.01 µM; in test [5], 33.2 ± 1.08 µM.

As for `CCCCCCCCCCCCCCCCCCNC(=O)[C@@H](NC(=O)c1ccc2cc(O)ccc2c1)[C@@H](C)O` [NZJU55, N-((2S,3R)-3-hydroxy-1-oxo-1-(octadecylamino)butan-2-yl)-6-hydroxylnaphthoic-2-carboxamide], the IC50 in test [1] amounted to 85.8 ± 1.73 µM; in test [2], 73.7 ± 5.21 µM; in test [3] it was 84.8 ± 4.34 µM; in test [4], 48.1 ± 4.67 µM; in test [5], 160 ± 5.86 µM.

Turning to `CCCCCCCCCCCCNC(=O)[C@@H](NS(=O)(=O)c1ccc(C)cc1)[C@@H](C)O` [NZJU56, N-((2S,3R)-3-hydroxy-1-oxo-1-(dodecylamino)butan-2-yl)-4-methylbenzsulfonamide], the IC50 in test [1] is 25.2 ± 0.99 µM; in test [2], 25.8 ± 0.52 µM; in test [3], 27.2 ± 0.99 µM; in test [4], 31.6 ± 4.56 µM; in test [5], 39.9 ± 2.54 µM.

Turning to `CCCCCCCCCCCCCCCCCCNC(=O)[C@@H](NS(=O)(=O)c1ccc(C)cc1)[C@@H](C)O` [NZJU58, N-((2S,3R)-3-hydroxy-1-oxo-1-(octadecylamino)butan-2-yl)-4-methylbenzsulfonamide], the IC50 in test [1] is 34 ± 1.03 µM; in test [2], 75.8 ± 9.46 µM; in test [3], 47.9 ± 5.2 µM; in test [4] it was 29.8 ± 2.23 µM; in test [5], over 200 µM.

As for `CCCCCCCCCCCCNC(=O)[C@@H](NS(=O)(=O)c1cccs1)[C@@H](C)O` [NZJU59, N-((2S,3R)-3-hydroxy-1-oxo-1-(dodecylamino)butan-2-yl)-2-thiophene sulfonamide], the IC50 in test [1] was determined as 22 ± 0.86 µM; in test [2], 25.9 ± 1.21 µM; in test [3] it was 20.1 ± 1.65 µM; in test [4], 30.9 ± 1.28 µM; in test [5] it was 41 ± 2.25 µM.

Consider `CCCCCCCCCCCCCCCCCCNC(=O)[C@@H](NS(=O)(=O)c1cccs1)[C@@H](C)O` [NZJU61, N-((2S,3R)-3-hydroxy-1-oxo-1-(octadecylamino)butan-2-yl)-2-thiophene sulfonamide], for which the IC50 in test [1], in test [2], in test [3], in test [4] and in test [5] was over 200 µM in each case.
